The text below walks through data of patent publication US20250360142A1, “NOVEL ATP-SENSITIVE POTASSIUM CHANNEL POTENTIATORS, THEIR PREPARATION AND USE” (RHYTHM PHARMACEUTICALS, INC., priority 2022, published 2025).

Assay [1] concerns INS-1E cells. The assay can be described thus: Glucose stimulated insulin secretion assay (GSIS) in INS-1E cells. The class given is cell-based, rat. As to conditions: for inhibition at 10 µM: INS-1E cells. As to the method: (§1) INS-1E, rat pancreatic tumor (insulinoma) cells were used in the GSIS assay. INS-1E cells were thawed and incubated in culture medium (CM) (RPMI 1640+Glucose q.s., HEPES 25 mM, Na-Pyruvat 1 mM, 2-Mercaptoethanol 50 μM, Fetal Calf Serum; heat inactivated (FCS) 10%, Penicillin/Streptomycin 100 U/ml) at 37° C.; 5% CO2 in a humidified atmosphere. 96 welled plates are coated with Matrigel by incubating the plates with 1 ml pre-diluted 1:10 with cold basal medium with 100 μl/well at 37° C. for 1 hour. Matrigel is then removed and replaced with 100 μl CM. Cells are then seeded into the wells as 70 000 cells/well. CM is refreshed with 200 μl fresh CM on the third day. CM is refreshed again with 200 μl fresh CM on the sixth day. GSIS assay is performed on the seventh day and cells in wells are washed with PKrebs®BSA and incubated with 100 μL/well for 2 h. Secretion plates are placed in an incubator at 37° C., 5% C02 and saturated humidity for 60 min. Meanwhile, lysis solution is prepared by adding 1 tablet of protease inhibitor/10 mL TETG solution and kept at 4° C. until the end of the experiment. The other incubation buffers are prepared without adding pharmacological compounds, aliquoted and then placed in a water bath at 37° C. The samples are prepared including negative (βKrebs®B0=0 mM Glucose) and positive controls (PKrebs®B20=20 mM Glucose) and each compound to be tested is diluted in DMSO as having a series of final concentration including 10.00, 4.00, 1.60, 0.64, 0.26, 0.10, 0.04, 0.02 μM.
(§2) After 2 hours of starvation, glucose stimulation and treatments are initiated. KRB Buffer from cells is removed by pipetting. The solutions are homogenized and the cells are treated with 90 µL/well. 10 μl from 10-fold compound dilution is added to the assay plate (final 100 μl/well) according to the following layout for each compound to be tested.
(§3) Incubation time is 40 minutes. Plates are placed in an incubator at 37° C., 5% CO2 and saturated humidity. After incubation, 80 μL of supernatants are collected without disrupting the cell layer and stored at 4° C. or on ice until centrifugation. Remaining medium are removed from each well and 100 μL/well of cold lysis solution is added and incubated for minimum 2 minutes at room temperature. Cell lysis is observed under microscope and waited for maximum for 5 more minutes until the lysis is complete. Cell lysates are collected and all samples including supernatants are centrifuged at 700×g, 5 min at 4° C. 30 μL of each samples are transferred into aliquots for ELISA. ELISA is performed with HTRF Assay Kit comprising an insulin high range kit supplied by Cisbio/Perkin Elmer. 5 μl of each Insulin standard and 5 μl of either supernatant or lysate are transferred on HTRF plate. 40 μl/well of Anti-insulin—XL665 and 20 μl/well of Anti-insulin—EU are added to each well and the plate is read on HTRF compatible reader (fluorescence 620 nm & 665 nm).

In assay [2] the test system is EndoC-βH1 Cell Line. The assay can be described thus: GSIS assay in EndoC-βH1 cell line. The class given is cell-based. As to the method:
as §1, §2, §3
GSIS experiments were also performed in other cell lines, e.g., EndoC-βH1, a canonical cell line for screening new therapeutic compounds.

`O=S1(=O)N=C(NC2CCOC2)Nc2ccc(F)cc21` (centres unmarked) [Compound 71] returned an inhibition at 10 µM in assay [1] (Rattus norvegicus) of 10 to 25%.
In the case of `COCC1(NC2=NS(=O)(=O)c3cc(F)ccc3N2)CCC1` [Compound 65], the inhibition at 10 µM in assay [1] (Rattus norvegicus) fell in the range of 25 to 50%.
As to `O=S1(=O)N=C(NC2(CF)CC2)Nc2cc(Cl)c(F)cc21` [Compound 60], in assay [1] (Rattus norvegicus), the inhibition at 10 µM was at least 50%.
In turn, `O=S1(=O)N=C(NC2CC23CCC3)Nc2cc(Cl)c(F)cc21` (single isomer, unassigned) [Compound 16, (S*)-6-chloro-7-fluoro-3-(spiro[2.3]hexan-1-ylamino)-4H-benzo[e][1,2,4]-thiadiazine 1,1-dioxide] yielded an IC50 in assay [2] of 0.5 to 1 µM.
In assay [1] (Rattus norvegicus), `COCC1(NC2=NS(=O)(=O)c3cc(F)c(Cl)cc3N2)CCC1` [Compound 69] returned an inhibition at 10 µM of at least 50%.
In assay [1] (Rattus norvegicus), `O=S1(=O)N=C(NC2(CF)CC2)Nc2ccc(Cl)cc21` [Compound 52] displayed an inhibition at 10 µM of 10 to 25%.
Regarding `CC1(C)CC1NC1=NS(=O)(=O)c2cc(F)ccc2N1` (single isomer, unassigned) [Compound 7, (R*)-3-((2,2-dimethylcyclopropyl)amino)-7-fluoro-4H-benzo[e][1,2,4]thiadiazine 1,1-dioxide], in assay [1] (INS-1E cell line), the “% inhibition of Insulin (Average Inhibition (%))” value (shortened to “% inhibition of Insulin”) is given as “B (B is equal to 25-50% inhibition)”.
In assay [1] (Rattus norvegicus), `O=S1(=O)N=C(NC(CF)CF)Nc2ccc(Cl)cc21` [Compound 49] gave an inhibition at 10 µM of at least 50%.
As to `CC(C)C1(NC2=NS(=O)(=O)c3cc(F)c(Cl)cc3N2)CC1` [Compound 64], in assay [1] (Rattus norvegicus), the inhibition at 10 µM is 25 to 50%.
`O=S1(=O)N=C(NC2CCOC2)Nc2cc(Cl)c(F)cc21` (centres unmarked) [Compound 73]: the inhibition at 10 µM in assay [1] (Rattus norvegicus) was at least 50%.
Still for that read-out and setting: under `O=S1(=O)N=C(NC(CF)CF)Nc2ccc(F)cc21` [Compound 43] stands 10 to 25%; under `CC(C)C1(NC2=NS(=O)(=O)c3cc(F)ccc3N2)CC1` [Compound 63], at least 50%.
In assay [2], `C[C@H]1C[C@@H]1NC1=NS(=O)(=O)c2cc(F)c(Cl)cc2N1` (stereo in doubt) [Compound 26, 6-chloro-7-fluoro-3-(((1S*, 2S*)-2-methylcyclopropyl)amino)-4H-benzo[e][1,2,4]-thiadiazine 1,1-dioxide] displayed an IC50 of 1 to 2 µM.
In assay [1] (Rattus norvegicus), `CC1(NC2=NS(=O)(=O)c3cc(F)ccc3N2)CC1` [Compound 46] returned an inhibition at 10 µM of at least 50%.
Regarding `O=S1(=O)N=C(NC2CC23CC3)Nc2cc(Cl)c(F)cc21` (single isomer, unassigned) [Compound 30, (R*)-6-chloro-7-fluoro-3-(spiro[2.2]pentan-1-ylamino)-4H-benzo[e][1,2,4]-thiadiazine 1,1-dioxide], the IC50 in assay [2] is under 0.5 µM.
The same measure, in the same setting: under `O=S1(=O)N=C(NC23CC(F)(C2)C3)Nc2ccc(F)cc21` [Compound 3, 7-fluoro-3-((3-fluorobicyclo[1.1.1]pentan-1-yl)amino)-4H-benzo[e][1,2,4]thiadiazine 1,1-dioxide] stands at least 2 µM.
The same measure, in the same setting: under `CC1(C)CC1NC1=NS(=O)(=O)c2cc(F)c(Cl)cc2N1` (single isomer, unassigned) [Compound 21, (S*)-6-chloro-3-((2,2-dimethylcyclopropyl)amino)-7-fluoro-4H benzo[e][1,2,4] thiadiazine 1,1-dioxide] stands 0.5 to 1 µM.
As for `O=S1(=O)N=C(NC2CC23CCC3)Nc2cc(Cl)c(F)cc21` (single isomer, unassigned) [Compound 17, (R*)-6-chloro-7-fluoro-3-(spiro[2.3]hexan-1-ylamino)-4H-benzo[e][1,2,4]-thiadiazine 1,1-dioxide], the IC50 in assay [2] is under 0.5 µM.
`O=S1(=O)N=C(NC23CC(C2)C3)Nc2ccc(Cl)cc21` [Compound 62]: the inhibition at 10 µM in assay [1] (Rattus norvegicus) was 25 to 50%.
`O=S1(=O)N=C(NC2CC23CC3)Nc2ccc(F)cc21` (single isomer, unassigned) [Compound 9, (S*)-7-fluoro-3-(spiro[2.2]pentan-1-ylamino)-4H-benzo[e][1,2,4]thiadiazine 1,1-dioxide]: the “% inhibition of Insulin” value in assay [1] (INS-1E cell line) is given as “B (B is equal to 25-50% inhibition)”.
`CCC1(NC2=NS(=O)(=O)c3cc(F)ccc3N2)CC1` [Compound 12, 3-((1-ethylcyclopropyl)amino)-7-fluoro-4H-benzo[e][1,2,4]thiadiazine 1,1-dioxide]: the “% inhibition of Insulin” value in assay [1] (INS-1E cell line) is listed as “C (C is equal to 10-25% inhibition)”.
Regarding `CC1(NC2=NS(=O)(=O)c3cc(Cl)ccc3N2)CC1` [Compound 51], the inhibition at 10 µM in assay [1] (Rattus norvegicus) lay within 10 to 25%.
On the same count and under the same terms, under `O=S1(=O)N=C(NC2CCOC2)Nc2ccc(Cl)cc21` (centres unmarked) [Compound 72] stands 25 to 50%.
Compound `O=S1(=O)N=C(NC2CC23CC3)Nc2ccc(F)cc21` (centres unmarked) [Compound 8, 7-fluoro-(spiro[2.2]pentan-1-ylamino)-4H-benzo[e][1,2,4]thiadiazine 1,1-dioxide] gave an IC50 in assay [2] of 1 to 2 µM.
With `O=S1(=O)N=C(NC2(CF)CC2)Nc2ccc(F)cc21` [Compound 47], in assay [1] (Rattus norvegicus), the inhibition at 10 µM was 10 to 25%.
In assay [2], `CC1(C)CC1NC1=NS(=O)(=O)c2cc(F)c(Cl)cc2N1` (single isomer, unassigned) [Compound 22, (R*)-6-chloro-3-((2,2-dimethylcyclopropyl)amino)-7-fluoro-4H-benzo[e][1,2,4] thiadiazine 1,1-dioxide] returned an IC50 of 1 to 2 µM.
In the case of `CC12CC(NC3=NS(=O)(=O)c4cc(F)c(Cl)cc4N3)(C1)C2` [Compound 18, 6-chloro-7-fluoro-3-((3-methylbicyclo[1.1.1]pentan-1-yl)amino)-4H-benzo[e][1,2,4]thiadiazine 1,1-dioxide], the “% inhibition of Insulin” value in assay [1] (INS-1E cell line) is reported as “C (C is equal to 10-25% inhibition)”.
`CC1(NC2=NS(=O)(=O)c3cc(F)c(Cl)cc3N2)CCC1` [Compound 24, 6-chloro-7-fluoro-3-((1-methylcyclobutyl)amino)-4H-benzo[e][1,2,4]thiadiazine 1,1-dioxide] came in with an IC50 in assay [2] of under 0.5 µM.
In turn, `CC1(C)CC1NC1=NS(=O)(=O)c2cc(F)ccc2N1` (centres unmarked) [Compound 5, 3-((2,2-dimethylcyclopropyl)amino)-7-fluoro-4H-benzo[e][1,2,4]thiadiazine 1,1-dioxide] showed an IC50 in assay [2] of 1 to 2 µM.
In turn, `CC1(NC2=NS(=O)(=O)c3cc(F)c(Cl)cc3N2)CC1` [Compound 58] yielded an inhibition at 10 µM in assay [1] (Rattus norvegicus) of at least 50%.
For `O=S1(=O)N=C(NC23CCC(C2)C3)Nc2ccc(F)cc21` [Compound 4, 3-(bicyclo[2.1.1]hexan-1-ylamino)-7-fluoro-4H-benzo[e][1,2,4]thiadiazine 1,1-dioxide], the 50% inhibitory concentration (IC50) in assay [2] fell in the range of 0.5 to 1 µM.
For the compound `O=S1(=O)N=C(NC2CC23CCC3)Nc2ccc(F)cc21` (centres unmarked) [Compound 11, 7-fluoro-3(spiro[2.3]hexan-1-ylamino)-4H-benzo[e][1,2,4]thiadiazine 1,1-dioxide], in assay [1] (INS-1E cell line), the “% inhibition of Insulin” value is on record as “B (B is equal to 25-50% inhibition)”. The compound also displayed a 50% inhibitory concentration (IC50) in assay [1] (Rattus norvegicus, INS-1E cell line) of 0.5 to 1 µM.
As for `O=S1(=O)N=C(NC2CC23CC3)Nc2cc(Cl)c(F)cc21` (centres unmarked) [Compound 28, 6-chloro-7-fluoro-3-(spiro[2.2]pentan-1-ylamino)-4H-benzo[e][1,2,4]thiadiazine 1,1-dioxide], the IC50 in assay [2] was under 0.5 µM.
`CC1(NC2=NS(=O)(=O)c3cc(F)ccc3N2)CCC1` [Compound 2, 7-fluoro-3-((1-methylcyclobutyl)amino)-4H-benzo[e][1,2,4]thiadiazine 1,1-dioxide] registered an IC50 in assay [2] of under 0.5 µM.
For the compound `O=S1(=O)N=C(NC2CC23CC3)Nc2cc(Cl)c(F)cc21` (single isomer, unassigned) [Compound 29, (S*)-6-chloro-7-fluoro-3-(spiro[2.2]pentan-1-ylamino)-4H-benzo[e][1,2,4]-thiadiazine 1,1-dioxide], the IC50 in assay [2] was at least 2 µM.
In assay [2], `CC1(C)CC1NC1=NS(=O)(=O)c2cc(F)c(Cl)cc2N1` (centres unmarked) [Compound 20, 6-chloro-3-((2,2-dimethylcyclopropyl)amino)-7-fluoro-4H-benzo[e][1,2,4] thiadiazine 1,1-dioxide] yielded an IC50 of under 0.5 µM.
On the same count and under the same terms, for `C[C@@H]1C[C@H]1NC1=NS(=O)(=O)c2cc(F)c(Cl)cc2N1` (stereo in doubt) [Compound 27, 6-chloro-7-fluoro-3-(((1R*, 2R*)-2 methylcyclopropyl)amino)-4H-benzo[e][1,2,4]-thiadiazine 1,1-dioxide] the value was at least 2 µM.

Usually inhibition stands for the percentage by which the read-out fell short of the control. As usually defined, the IC50 is the concentration that inhibits the measured activity by half. A higher IC50 goes with lower potency.
